TGI and GI50 data for ten compounds are collected here from PubChem BioAssay (NCI).

Each structure is given as a SMILES string. “And” between values parts separate entries of the source, which are not always exact repeats. Equal values may be shown once.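 Following 48 hours of exposure in 96-well plates, responses at five concentrations were used to interpolate endpoints linearly. GI50 = concentration required for 50% inhibition of growth. TGI denotes the concentration required for complete inhibition of growth.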

Among the test systems are ACHN renal; OVCAR-8 ovarian; UACC-257 melanoma; OVCAR-4 ovarian; 786-0 renal; SF-295 CNS; MOLT-4 leukemia; OVCAR-5 ovarian; SNB-19 CNS; KM12 colon.
Common to all, as to assay: growth of human tumour cells (NCI), 48 h

`CN(C)CC1(C)CC/C(=C\c2ccccc2)C1=O` (stereo unspecified): the TGI in the assay with ACHN renal, in the assay with OVCAR-8 ovarian, in the assay on UACC-257 melanoma, with OVCAR-4 ovarian, with 786-0 renal and in the assay on SF-295 CNS was above 100 µM throughout. The TGI in the assay with MOLT-4 leukemia, in the assay with OVCAR-5 ovarian, with SNB-19 CNS and in the assay on KM12 colon was above 100 µM in each case.

On to `CCCCCCCC[N+](C)(CCCCCCCC)CCCCCCCC`, for which the GI50 is 0.427 µM in the assay with ACHN renal; 0.411 µM with OVCAR-8 ovarian; 0.37 µM in the assay with UACC-257 melanoma; 0.371 µM with OVCAR-4 ovarian; 0.345 µM in the assay on 786-0 renal; 0.261 µM with SF-295 CNS. The GI50 was 0.324 µM in the assay on MOLT-4 leukemia, 0.621 µM in the assay with OVCAR-5 ovarian, 0.398 µM in the assay with SNB-19 CNS and 0.213 µM with KM12 colon. Moreover, the TGI with ACHN renal worked out at 1.46 µM; in the assay on OVCAR-8 ovarian it was 1.46 µM; with UACC-257 melanoma, 1.15 µM; with OVCAR-4 ovarian, 1.67 µM; in the assay with 786-0 renal, 1.3 µM; with SF-295 CNS it was 0.826 µM. In addition, the TGI in the assay on MOLT-4 leukemia turned out to be 1.37 µM; in the assay on OVCAR-5 ovarian it was 1.98 µM; in the assay on SNB-19 CNS, 1.54 µM; in the assay on KM12 colon, 0.575 µM.

As to `CC(C)(C)c1ccc(C(O)c2ccc(C(C)(C)C)cc2)cc1`, the TGI with ACHN renal was 30.2 µM; with OVCAR-8 ovarian, 29.2 µM; in the assay on UACC-257 melanoma, 34 µM; in the assay with OVCAR-4 ovarian it was 28.5 µM; with 786-0 renal, 29 µM; in the assay with SF-295 CNS it was 27 µM. Besides, the TGI in the assay on MOLT-4 leukemia stood at 39.2 µM; with OVCAR-5 ovarian, 30.5 µM; in the assay on SNB-19 CNS, 31.8 µM; in the assay on KM12 colon, 29.1 µM.

As for `COc1ccc([N+](=O)[O-])c(S(=O)(=O)c2ccc(Cl)cc2)n1`, the GI50 in the assay on ACHN renal was 2.08 µM; with OVCAR-8 ovarian, 3.67 µM; with UACC-257 melanoma, 11.3 µM; in the assay on OVCAR-4 ovarian, 2.32 µM; in the assay on 786-0 renal it was 2.51 µM; in the assay on SF-295 CNS, 13.1 µM. Moreover, the GI50 with MOLT-4 leukemia was 3.59 µM; in the assay with OVCAR-5 ovarian, 3.13 µM; in the assay on SNB-19 CNS, 13 µM; in the assay with KM12 colon, 14 µM. For the same compound, the TGI turned out to be 4.11 µM in the assay with ACHN renal; 15.9 µM in the assay with OVCAR-8 ovarian; 23.7 µM with UACC-257 melanoma; 6.51 µM in the assay with OVCAR-4 ovarian; 7.18 µM in the assay on 786-0 renal; 28 µM in the assay on SF-295 CNS. Besides, the TGI with MOLT-4 leukemia was above 100 µM; in the assay on OVCAR-5 ovarian, 12.3 µM; in the assay with SNB-19 CNS, 29.2 µM; in the assay on KM12 colon, 27.8 µM.

As for `Cc1cc(Cl)ccc1N=C1NC(=O)C(CC(=O)Nc2ccc(Cl)cc2Cl)S1` (stereo unspecified), the TGI in the assay on ACHN renal, in the assay with OVCAR-8 ovarian, in the assay with UACC-257 melanoma, in the assay with OVCAR-4 ovarian, in the assay on 786-0 renal and in the assay with SF-295 CNS was above 100 µM each time. The TGI in the assay with MOLT-4 leukemia, with OVCAR-5 ovarian, with SNB-19 CNS and in the assay with KM12 colon was above 100 µM in each case.

For the compound `NCCNC(=S)S`, the TGI in the assay on ACHN renal, in the assay with OVCAR-8 ovarian, in the assay on UACC-257 melanoma, in the assay with OVCAR-4 ovarian, in the assay with 786-0 renal and in the assay with SF-295 CNS was above 100 µM throughout. The TGI was 77.9 µM in the assay with MOLT-4 leukemia, above 100 µM in the assay with OVCAR-5 ovarian, above 100 µM in the assay on SNB-19 CNS and above 100 µM in the assay with KM12 colon.

In the case of `NC1=N/C(=C2/CCNC(=O)c3[nH]c(Br)cc32)C(=O)N1`, the TGI was above 100 µM in the assay with ACHN renal; above 100 µM in the assay on OVCAR-8 ovarian; above 100 µM in the assay on UACC-257 melanoma; 46.4 µM and 40.5 µM with OVCAR-4 ovarian; above 61.4 µM with 786-0 renal; above 100 µM in the assay with SF-295 CNS. The TGI was above 52.6 µM in the assay with MOLT-4 leukemia, above 100 µM with OVCAR-5 ovarian, above 100 µM in the assay on SNB-19 CNS and above 100 µM in the assay on KM12 colon. In addition, the GI50 in the assay with KM12 colon is above 100 µM.

Regarding `COc1ccc2c(c1)CCC1C2CC[C@]2(C)/C(=N/OC(=O)Cc3ccccc3)CCC12` (stereo partly specified), the GI50 with ACHN renal was 16.4 µM; with OVCAR-8 ovarian, 23.2 µM; in the assay with UACC-257 melanoma it was 18.7 µM; in the assay on OVCAR-4 ovarian, 18.4 µM; in the assay with 786-0 renal, 18.3 µM; in the assay with SF-295 CNS, 16.7 µM. The GI50 is 17.2 µM in the assay with MOLT-4 leukemia, 46.6 µM with OVCAR-5 ovarian, 18 µM in the assay on SNB-19 CNS and 15 µM in the assay with KM12 colon. The TGI in the assay with ACHN renal worked out at 32 µM; in the assay on OVCAR-8 ovarian it was 57.1 µM; in the assay with UACC-257 melanoma it was 38.4 µM; in the assay with OVCAR-4 ovarian, 48.5 µM; in the assay with 786-0 renal, 33.3 µM; in the assay on SF-295 CNS, 33.8 µM. Further, the TGI is 35.8 µM in the assay with MOLT-4 leukemia, above 100 µM with OVCAR-5 ovarian, 36.7 µM in the assay with SNB-19 CNS and 30.4 µM in the assay with KM12 colon.

`COc1cc(/C=C2\COc3ccc(O)c(O)c3C2=O)cc(OC)c1`: the GI50 with ACHN renal is 1.54 µM; in the assay with OVCAR-8 ovarian it was 0.944 µM; with UACC-257 melanoma it was 1.79 µM; with OVCAR-4 ovarian, 2.2 µM; with 786-0 renal, 1.54 µM; with SF-295 CNS it was 3.01 µM. The GI50 is 1.54 µM with MOLT-4 leukemia, 3.03 µM with OVCAR-5 ovarian, 2.17 µM in the assay with SNB-19 CNS and 1.54 µM in the assay on KM12 colon. The TGI in the assay with ACHN renal turned out to be 3.74 µM; in the assay with OVCAR-8 ovarian, 18.3 µM; in the assay with UACC-257 melanoma, 4.97 µM; with OVCAR-4 ovarian, 14.2 µM; in the assay with 786-0 renal, 3.78 µM; with SF-295 CNS, 9.09 µM. Further, the TGI with MOLT-4 leukemia worked out at 53.1 µM; with OVCAR-5 ovarian, 11.5 µM; in the assay with SNB-19 CNS, 7.47 µM; in the assay on KM12 colon, 3.58 µM.

In the case of `COc1cc(-c2cc(-c3nc4ccc(Cl)cc4[nH]3)[nH]n2)cc(OC)c1OC`, the GI50 with ACHN renal is 2.96 µM; in the assay on OVCAR-8 ovarian it was 2.26 µM; in the assay on UACC-257 melanoma, 2.6 µM; with OVCAR-4 ovarian it was 1.38 µM; with 786-0 renal, 5.32 µM; in the assay with SF-295 CNS, 2.35 µM. In addition, the GI50 is 2.02 µM in the assay with MOLT-4 leukemia, 12.1 µM in the assay on OVCAR-5 ovarian, 7.25 µM in the assay with SNB-19 CNS and 3.45 µM in the assay with KM12 colon. Also, the TGI in the assay on ACHN renal worked out at 12.9 µM; with OVCAR-8 ovarian, 5.59 µM; in the assay on UACC-257 melanoma, 7.55 µM; in the assay with OVCAR-4 ovarian it was 4.37 µM; in the assay on 786-0 renal it was 18.3 µM; with SF-295 CNS it was 11.2 µM. For the same compound, the TGI stood at 4.82 µM in the assay on MOLT-4 leukemia, 30.2 µM with OVCAR-5 ovarian, 20.4 µM with SNB-19 CNS and 10.6 µM with KM12 colon.
